Source: paper PMC11964630 (Journal of Pharmaceutical Analysis, 2024)

Tested on: U87MG xenograft-bearing NOD/SCID mice
Assay: Ex vivo biodistribution in U87MG xenograft model
Design: species or system mouse
Conditions: single i.v. dose of atezolizumab 20 mg/kg, 24 h before [^18F]AlF-NOTA-PCP2

## atezolizumab: anti-PD-L1 antibody used for blockade, 20 mg/kg
  decrease in tracer uptake in U87MG tumors: 92.2%
